In the supplement of paper PMC10307832:

Compound: Cc1ccc(NC(=O)c2ccc(CN3CCN(C)CC3)cc2)cc1Nc1nccc(-c2cccnc2)n1 [Imatinib]
Assay: relative viability (nuclei count vs DMSO), 5 days (fraction); higher = more cells survive
How it was run: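 Viability was read as treated-well nuclei divided by vehicle-well nuclei, using the median across plates. Lung cancer cell lines in 1536-well plates were kept overnight at 37 °C, pinned with five √10-spaced library-drug doses, and after 5 days were Hoechst-stained, imaged at 4× and counted in MetaXpress. Plates passed only with control CV below 25% and at least one doubling.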

Row | Cell Line | relative viability (0.02 µM) | relative viability (0.06325 µM) | relative viability (0.2 µM) | relative viability (0.6325 µM) | relative viability (2 µM)
1 | NCI-H650 | 1 | 0.779 | 1.02 | 1.1 | 0.824
2 | NCI-H2170 | 0.987 | 0.955 | 1.05 | 0.961 | 1.01
3 | NCI-H441 | 1.06 | 0.969 | 1.2 | 0.885 | 
4 | HCC-366 | 0.978 | 0.856 | 1.06 | 1.07 | 0.988
5 | NCI-H2009 | 1.08 | 0.728 | 1.09 | 1.05 | 0.977
6 | NCI-H1792 | 0.946 | 0.921 | 1.03 | 0.948 | 0.87
7 | SW 900 | 0.806 | 0.712 | 0.941 | 0.896 | 0.855
8 | COR-L23 | 1.08 | 0.916 | 1.14 | 1.02 | 1.1
9 | SK-LU-1 | 1.08 |  | 1.15 |  | 1.11
10 | NCI-H23 | 1.06 | 0.994 | 1.07 | 0.967 | 0.926
11 | NCI-H1944 | 0.974 | 0.706 | 0.977 | 0.969 | 0.951
12 | NCI-H661 | 0.977 | 0.962 | 0.994 | 0.969 | 0.982
13 | NCI-H1395 | 1.13 |  | 0.897 | 0.976 | 0.938
14 | LCLC-97TM1 | 1.08 |  | 1.01 | 1 | 1.03
15 | EPLC-272H | 1.16 |  | 0.884 | 1.07 | 0.87
16 | EKVX | 1.03 | 0.763 | 1 | 1.01 | 
17 | NCI-H1975 | 1.04 | 0.951 | 0.94 | 0.964 | 0.94
18 | NCI-H322M | 0.988 | 1.05 | 0.99 | 0.831 | 0.944
19 | NCI-H2347 | 1.09 | 0.825 | 1.13 | 1.07 | 0.977

Row | Cell Line | relative viability (0.02 µM) | relative viability (0.06325 µM) | relative viability (0.2 µM) | relative viability (0.6325 µM) | relative viability (2 µM)
20 | NCI-H1355 | 1.05 |  | 1.08 | 0.978 | 0.99
21 | NCI-H1650 | 0.919 | 0.778 | 1.03 | 0.922 | 0.993
22 | NCI-H727 | 0.818 | 0.676 | 0.957 | 1.08 | 0.938
23 | RERF-LC-KJ | 1.1 | 0.884 | 1.06 | 0.985 | 0.953
24 | PC-3 [JPC-3] | 1.07 |  | 1.09 | 1.11 | 0.972
25 | PC-14 | 1.08 | 0.726 | 1.17 | 1 | 0.953
26 | ABC-1 | 1.11 |  | 1.07 | 0.888 | 0.634
27 | SW 1573 | 1.16 | 0.79 | 1.13 | 1.01 | 1.02
28 | UMC-11 | 1.03 | 0.987 | 1.03 | 1.1 | 0.941
29 | NCI-H1793 | 0.939 |  | 1.11 | 0.884 | 0.909
30 | ChaGo-K-1 | 1.02 | 0.794 | 1.01 |  | 0.949
31 | A-427 | 1.04 |  | 0.989 | 0.974 | 0.969
32 | NCI-H358 |  | 0.865 | 1.02 | 0.819 | 0.947
33 | IA-LM | 1.04 | 1.02 | 0.936 | 1.27 | 0.853
34 | NCI-H520 | 1.11 | 1.15 | 0.907 | 0.882 | 0.938
35 | NCI-H1993 | 0.89 | 0.8 | 1.08 | 0.886 | 0.925
36 | H3255 | 1.05 | 0.749 | 0.893 | 1.06 | 0.899
37 | NCI-H1703 | 0.947 | 0.804 | 0.56 | 0.357 | 0.212
